The text below walks through data of patent US20240190904A1, “Heteroaryl compounds as inhibitors of RIP2 kinase, composition and application thereof” (Accro Bioscience (HK) Limited, priority 2021, published 2024).

In brackets after ≈: the same amount, converted by molar mass.

One series concerns the target RIP2 kinase (Homo sapiens (Human), UniProt O43353). Kind of series: Binding affinity assay (Kd). On the procedure: For most assays, kinase-tagged T7 phage strains were prepared in an E. coli host derived from the BL21 strain. E. coli were grown to log-phase and infected with T7 phage and incubated with shaking at 32° C. until lysis. The lysates were centrifuged and filtered to remove cell debris. The remaining kinases were produced in HEK-293 cells and subsequently tagged with DNA for qPCR detection. Streptavidin coated magnetic beads were treated with biotinylated small molecule ligands for 30 minutes at room temperature to generate affinity resins for kinase assays. The liganded beads were blocked with excess biotin and washed with blocking buffer (SeaBlock (Pierce), 1% BSA, 0.05% Tween 20, 1 mM DTT) to remove unbound ligand and to reduce non-specific binding. Binding reactions were assembled by combining kinases, liganded affinity beads, and test compounds in 1× binding buffer (20% SeaBlock, 0.17×PBS, 0.05% Tween 20, 6 mM DTT). Test compounds were prepared as 111× stocks in 100% DMSO. Kds were determined using an 11-point 3-fold compound dilution series with three DMSO control points. All compounds for Kd measurements are distributed by acoustic transfer (non-contact dispensing) in 100% DMSO. The compounds were then diluted directly into the assays such that the final concentration of DMSO was 0.9%. All reactions performed in polypropylene 384-well plate. Each was a final volume of 0.02 ml. The assay plates were incubated at room temperature with shaking for 1 hour and the affinity beads were washed with wash buffer (1×PBS, 0.05% Tween 20). The beads were then re-suspended in elution buffer (1×PBS, 0.05% Tween 20, 0.5 μM nonbiotinylated affinity ligand) and incubated at room temperature with shaking for 30 minutes. The kinase concentration in the eluates was measured by qPCR.
An 11-point 3-fold serial dilution of each test compound was prepared in 100% DMSO at 100× final test concentration and subsequently diluted to 1× in the assay (final DMSO concentration=1%). Most Kds were determined using a compound top concentration=30,000 nM. If the initial Kd determined was <0.5 nM (the lowest concentration tested), the measurement was repeated with a serial dilution starting at a lower top concentration.
Binding constants (Kds) were calculated with a standard dose-response curve using the Hill equation: […]
The Hill Slope was set to −1.
Curves were fitted using a non-linear least square fit with the Levenberg-Marquardt algorithm.

The nature of series [1]: Thermodynamic solubility test. As to conditions: thermodynamic from solid; FaSSIF pH 6.5, thermodynamic. Format: physicochemical. On the procedure: • a. Add assay buffer into compound powder to make 4 mg/mL solution. • b. Sample tubes are shaken for 1 hour (1000 rpm), then equilibrated over night at room temperature. • c. Samples are centrifuged (10 min-12000 rpm) to precipitate un-dissolved particles. • d. Supernatants are transferred to new tubes. • e. Concentrations of the supernatants after centrifugation are determined by LCMSMS detection.

The next series is described as follows: Caco-2 permeability test. Format: in vitro ADME. As to conditions: human, Caco-2, pH 7.4. On the procedure: (§1) • 1. Prewarm HBSS Buffer in 37° C. water bath • 2. Take compounds from −20° C., sonicate for a few minutes (no less than 1 minute) • 3. Solution preparation
(§2) For A-to-B direction: • HBSS buffer with 0.3% DMSO and 5 μM LY: add 150 μL DMSO and 50 μL LY (5 mM) into 50 ml HBSS buffer (pH7.4). • HBSS buffer with 0.1% DMSO and 5 μM LY: add 50 μL DMSO and 50 μL LY (5 mM) into 50 mL HBSS buffer (pH7.4).
(§3) For B-to-A direction: • HBSS buffer with 0.3% DMSO: add 150 μL DMSO into 50 ml HBSS buffer (pH7.4) • HBSS buffer with 0.1% DMSO: add 50 μL DMSO into 50 ml HBSS buffer (pH7.4).
(§4) Receiver Solution Buffer:
(§5) Prepare HBSS buffer with 0.4% DMSO: add 200 μL DMSO into 50 ml HBSS buffer (pH7.4).
(§6) For B-to-A direction: • Prepare HBSS buffer with 0.4% DMSO and 5 uM LY: add 200 μL DMSO and 50 μL LY (5 mM) into 50 ml HBSS buffer (pH7.4).
(§7) Take cell culture plate out of incubator, wash the cell monolayers with HBSS buffer, and then measure TEER values at Rm temperature. • 5. Centrifuge the compound solution (from step 3) at 4000 rpm for 5 min before loading to donor chambers. • 6. Add solution based on the volumes listed in the following table (make sure to take extra 100 uL of donor sample for T0 as Backup).
(§8) • 7. To determine LY concentration in the apical chamber, take 100 μL sample from apical chambers into an opaque plate for LYT0. • 8. Prewarm apical and basolateral plates at 37° C. for about 5 min, then begin transport by placing the apical plate onto basolateral plate. • 9. Keep the plates in incubator at 37° C. for 90 min • 10. Prepare 20× solution
(§9) • 11. Separate the apical plate from the basolateral plate after 90-min incubation. • 12. Take 100 μL samples from basolateral plate to an opaque plate as LYT90. • 13. Measure LY concentrations for LYT0 and LYT90 by Fluorometer (at excitation of 485 nm/emission of 535 nm). • 14. Sample preparation for LC-MS/MS: Donor or receiver samples are diluted by 0.4% DMSO HBSS, then mix with ACN with IS (Osalmid or Imipramine)

A further series deals with Caco-2. Kind of series: Caco-2 permeability test. The class given is in vitro ADME. The settings on record: Caco-2. On the procedure:
as §1, §2, §3, §4, §5, §6, §7, §8, §9

Series [2] is described as follows: Metabolic stability test, HLM. The class given is in vitro ADME. The settings on record: human, liver microsomes. On the procedure: (§10) • 1. Buffers: • Buffer A: 1.0 L of 0.1 M monobasic Potassium Phosphate buffer containing 1.0 mM EDTA • Buffer B: 1.0 L of 0.1 M Dibasic Potassium Phosphate buffer containing 1.0 mM EDTA • Buffer C: 0.1 M Potassium Phosphate buffer, 1.0 mM EDTA, pH 7.4 by titrating 700 mL of buffer B with buffer A while monitoring with the pH meter. • 2. Reference compounds (Ketanserin) and test compounds spiking solution: • 500 μM spiking solution: add 10 μL of 10 mM DMSO stock solution into 190 μL ACN. • 1.5 μM spiking solution in microsomes (0.75 mg/mL): add 1.5 μL of 500 μM spiking solution and 18.75 μL of 20 mg/mL liver microsomes into 479.75 μL of Buffer C on ice. • 3. Prepare NADPH stock solution (6 mM) by dissolving NADPH into buffer C. • 4. Dispense 30 μL of 1.5 μM spiking solution containing 0.75 mg/mL microsomes solution to the assay plates designated for different time points (0-, 5-, 15-, 30-, 45-min) on ice. • 5. For 0-min time point, add 135 μL of ACN containing IS to the wells of 0-min plate and then add 15 μL of NADPH stock solution (6 mM). • 6. Pre-incubate all other plates at 37° C. for 5 minutes. • 7. Add 15 μL of NADPH stock solution (6 mM) to the plates to start the reaction and timing. • 8. At 5-min, 15-min, 30-min, and 45-min, add 135 μL of ACN containing IS to the wells of corresponding plates, respectively, to stop the reaction. • 9. After quenching, shake the plates at the vibrator (IKA, MTS 2/4) for 10 min (600 rpm/min) and then centrifuge at 5594 g for 15 min (ThermoMultifuge×3R). • 10. Transfer 50 μL of the supernatant from each well into a 96-well sample plate containing 50 μL of ultra pure water (Millipore, ZMQS50F01) for LC/MS analysis.
(Liver microsomes are vesicles of endoplasmic reticulum, rich in cytochrome P450 enzymes.)

The nature of series [3]: Metabolic stability test, RLM. The settings on record: rat, liver microsomes. The class given is in vitro ADME. On the procedure:
as §10

The nature of series [4]: Metabolic stability test, DLM. The settings on record: dog, liver microsomes. The class given is in vitro ADME. On the procedure: as §10

Chain of RIP2 kinase (O43353 whole entry): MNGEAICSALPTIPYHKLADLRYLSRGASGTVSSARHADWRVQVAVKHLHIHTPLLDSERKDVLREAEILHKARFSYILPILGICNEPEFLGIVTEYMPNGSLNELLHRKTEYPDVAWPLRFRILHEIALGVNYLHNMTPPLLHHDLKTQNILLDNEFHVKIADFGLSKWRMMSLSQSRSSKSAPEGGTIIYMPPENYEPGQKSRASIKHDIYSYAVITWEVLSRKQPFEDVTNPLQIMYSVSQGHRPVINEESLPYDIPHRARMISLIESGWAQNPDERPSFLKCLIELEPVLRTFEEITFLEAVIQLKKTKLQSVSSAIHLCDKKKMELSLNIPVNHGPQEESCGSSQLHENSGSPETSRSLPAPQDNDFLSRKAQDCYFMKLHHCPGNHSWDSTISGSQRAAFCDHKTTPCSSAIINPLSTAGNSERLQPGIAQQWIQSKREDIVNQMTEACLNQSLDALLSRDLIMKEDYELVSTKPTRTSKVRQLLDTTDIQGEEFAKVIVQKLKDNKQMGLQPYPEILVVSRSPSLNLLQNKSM

For the molecule `CP(C)(=O)c1cc2c(Nc3ccc4scnc4c3)ccnc2cc1-c1cnn(C2CCNCC2)c1` [A13], the Kd (in general, the constant that tells how readily two partners part at equilibrium) on RIP2 kinase is 1.4 nM. In addition, in series [1], the concentration in solution (solubility) came to 4.33 mM (≈ 2170 µg/mL). For the same molecule, in the series “Caco-2 permeability test” (A-B), the Papp A→B – broadly, the apparent permeability from the apical to the basolateral side of a cell layer – at 90 min is < 0.14 ×10⁻⁶ cm/s. For the same molecule, the Papp B→A (as a rule, how fast a substance crosses the layer from the basolateral side) at 90 min in the series “Caco-2 permeability test” (B-A) came out at 0.27 ×10⁻⁶ cm/s. In addition, in the series “Caco-2 permeability test” (efflux ratio, read-out: Caco-2 Permeability B-A/A-B), the efflux ratio at 90 min is > 1.93. The “permeability (in words)” value in the series with Caco-2 is “low”. In addition, the CLint scaled at 1 μM was determined as 0.69 mL/min/kg in series [2] (pH 7.4, read-out: Cl (mL/min/kg) HLM); 31.6 mL/min/kg in series [3] (pH 7.4, read-out: Cl (mL/min/kg) RLM); 17.4 mL/min/kg in series [4] (pH 7.4, read-out: Cl (mL/min/kg) DLM). In addition, the half-life at 1 μM was 2520 min in series [2] (pH 7.4, read-out: T1/2 (min) HLM); 78.7 min in series [3] (pH 7.4, read-out: T1/2 (min) RLM); 198 min in series [4] (pH 7.4, read-out: T1/2 (min) DLM).
